Experimental data as given in US7083969B2, “Serratia marcescens strain” (Korea Research Institute of Bioscience and Biotechnology, priority 1997, dated 2006).

What was measured:
[1] = Viability of spleen immune cells cultured in vitro (cytotoxicity); assay type: cell-based, mice; settings: mouse, immune cells separated from the spleen, cultured in vitro
Description: (§1) Germ-free test animals, mice BDF1 and B6C3F1, obtained from Genetic Resources Center, Korean Research Institute of Bioscience and Biotechnology in the Korean Institute of Science and Technology, were used for the assay of the immunosuppressive activity of prodigiosin. […] At such concentrations as show no cytotoxic effects, prodigiosin cannot suppress the immune response of B lymphocytes. […] This selective immunosuppression for T lymphocytes is not ascribed to the selective cytotoxicity for T lymphocytes. The same immunosuppression results as in the ex vivo experiments were obtained in in vivo experiments. When T lymphocyte activity was measured by use of a graft versus host reaction and a T cell-dependent antibody producing reaction, the prodigiosin suppressed the immune response, but exerted no toxicity on animals. Therefore, the immunosuppressive activity of the prodigiosin is thought to be attributed to the selective suppression for T lymphocyte activity.
(§2) Immune cells were separated from the spleens of the germ-free animals and cultured in vitro. The cultures were treated with the prodigiosin at various amounts from 3 nM to 30,000 nM and the viability of the cells were measured from the first day to the third day after the treatment. Based on the initial viability of the immune cells, the viabilities of the test groups were calculated. […] So, subsequent experiments for immunoactivity were carried out at not more than 100 nM in order to exclude the cytotoxicity and to measure only the immunosuppressive effect of the prodigiosin.

[2] = tested on: Immune cells separated from the spleens; experiment: as above; assay type: cell-based, mice; settings: ex vivo experiments
Description: as §1, §2

T lymphocyte = experiment: Concanavalin A-induced T lymphocyte proliferation (DNA synthesis); assay type: cell-based, mice; settings: for Proliferation (%) T cell: three days
Description: as §1
Three standard substances which induce lymphocytes to proliferate were employed to measure the effect of the prodigiosin on proliferation of lymphocytes. 5 μg/ml of lipopolysaccharide were used to induce B lymphocyte to proliferate, 5 μg/ml of Concanavalin A for T lymphocyte and 5 μg/ml of Pokeweed mitogen for B and T lymphocytes, both. Prodigiosin was added, together with the proliferation-inducing substance. Three days after the addition, the proliferation effect was monitored by measuring the amount of DNA synthesized. In order to exclude the cytotoxicity of prodigiosin, it was used at a concentration of not more than 100 nM. In Table 2, the proliferation percentages mean the proliferated amounts of prodigiosin-treated lymphocytes relative to that of an non-treated group. As shown, the suppression percentage effected by prodigiosin in amounts of 30–100 nM reaches up to 96–98% for the T lymphocyte induced by concanavalin A while the proliferation of B lymphocyte induced by lipopolysaccharide and the proliferation of B/T lymphocytes induced by pokeweed mitogen are suppressed to the extent of 13–19% and 45–83%, respectively.

B lymphocytes = experiment: Selective cytotoxicity: proportion of B lymphocytes after treatment; assay type: cell-based, mice; settings: for Proliferation (%) B cell: proportion of the cells
Description: as §1
(§3) Whether the selective immunosuppression of prodigiosin for T cells is attributed to the selective cytotoxicity for T cells or not was assayed by measuring the proportion of the cells. On the third day after treatment of the immune cells with prodigiosin, the number of the cells was counted. Because T lymphocytes consist of CD4 T cell (helper T cell) and CD8 T cell (cytotoxic T cell), the proportion of T and B lymphocytes was calculated in this Example.

[3] = tested on: CD4 T cell (helper T cell); experiment: Selective cytotoxicity: proportion of CD4 T cells after treatment; assay type: cell-based, mice; settings: proportion of the cells
Description: as §1, §3

T lymphocytes = experiment: Graft versus host reaction in vivo (lymphatic node weight); design: species or system BDF1 mice; settings: for Wt. (mg) of Lymphatic node: sixth day after transplantation
Description: as §1
(§4) A graft versus host reaction was utilized for the in vivo assay of prodigiosin's immunosuppression. The graft versus host reaction enables an assessment of the immune response of T lymphocytes. On the sixth day after transplantation of the T lymphocytes of BDF1 mice different in histocompatibility antigen, the lymphatic nodes were measured for weight, thereby assessing the immune response of T lymphocyte to the grafted heteroantigens. The prodigiosin was peritoneally injected at a dose of 30–100 mg per kg of body weight for five days while cyclophosphamide, as a positive control, was peritoneally injected at a dose of 100 mg/kg for five days. The body weights of the injected mice were measured to compare the toxicity of prodigiosin with that of cyclophosphamide. […] As for the body weight, it was not changed in the mice injected with prodigiosin at an effective concentration.

[4] = Body weight of injected mice in graft versus host experiment (toxicity); assay type: in vivo
Method: as §4

[5] = Weight ratio of the spleen to the body (toxicity); assay type: in vivo, mice
Method: A T cell-dependent immune response reaction was used to assess the influence of prodigiosin on T lymphocytes in vivo. Test animals were immunized with sheep red blood cells by peritoneal injection. 4 days after the immunization, the number of the antibody producing cells was counted. Prodigiosin was peritoneally injected everyday. Based on the number of the […] cells in the non-treated animals, the influence of prodigiosin on T lymphocytes in vivo was assessed as percentage. Also, the weight ratio of the spleen to the body was measured to assay the toxicity of prodigiosin to the animals. Cyclophosphamide was used as a positive control.

CD4 T lymphocytes = experiment: Immunosuppressive activity on CD4 T lymphocytes; assay type: cell-based
[6] = 3 nM, third day after treatment
[7] = 10 mg/kg peritoneally for five days
[8] = 30 mg/kg peritoneally for five days

SMILES: CCCCCC1=C/C(=C/c2[nH]c(-c3ccc[nH]3)cc2OC)N=C1C [Prodigiosin, prodigiosin]
- viability at 1 day, 0.003 µM ([1]; 3 nM, 1st day after treatment, based on initial viability): 96%
- viability at 2 day, 0.003 µM ([1]; 3 nM, 2nd day after treatment, based on initial viability): 86%
- viability at 3 day, 0.003 µM ([1]; 3 nM, 3rd day after treatment, based on initial viability): 79%
- viability at 1 day, 0.01 µM ([1]; 10 nM, 1st day): 89%
- viability at 2 day, 0.01 µM ([1]; 10 nM, 2nd day): 82%
- viability at 3 day, 0.01 µM ([1]; 10 nM, 3rd day): 79%
- viability at 1 day, 0.03 µM ([1]; 30 nM, 1st day): 89%
- viability at 2 day, 0.03 µM ([1]; 30 nM, 2nd day): 70%
- viability at 3 day, 0.03 µM ([1]; 30 nM, 3rd day): 81%
- viability at 1 day, 0.1 µM ([1]; 100 nM, 1st day): 82%
- viability at 2 day, 0.1 µM ([1]; 100 nM, 2nd day): 70%
- viability at 3 day, 0.1 µM ([1]; 100 nM, 3rd day): 70%
- viability at 1 day, 0.3 µM ([1]; 300 nM, 1st day): 68%
- viability at 2 day, 0.3 µM ([1]; 300 nM, 2nd day): 14%
- viability at 3 day, 0.3 µM ([1]; 300 nM, 3rd day): 18%
- viability at 1 day, 1000 nM ([1]; 1,000 nM, 1st day): 74%
- viability at 2 day, 1000 nM ([1]; 1,000 nM, 2nd day): 14%
- viability at 3 day, 1000 nM ([1]; 1,000 nM, 3rd day): 14%
- viability at 1 day, 3000 nM ([1]; 3,000 nM, 1st day): 61%
- viability at 2 day, 3000 nM ([1]; 3,000 nM, 2nd day): 9%
- viability at 3 day, 3000 nM ([1]; 3,000 nM, 3rd day): 8%
- viability at 1 day, 10000 nM ([1]; 10,000 nM, 1st day): 32%
- viability at 2 day, 10000 nM ([1]; 10,000 nM, 2nd day): 4%
- viability at 3 day, 10000 nM ([1]; 10,000 nM, 3rd day): 4%
- viability at 1 day, 30000 nM ([1]; 30,000 nM, 1st day): 4%
- viability at 2 day, 30000 nM ([1]; 30,000 nM, 2nd day): 4%
- viability at 3 day, 30000 nM ([1]; 30,000 nM, 3rd day): 4%
- concentration with no cytotoxic effects [2]: less than 100 nM
- Proliferation (%) T cell (T lymphocyte; 3 nM, 5 μg/ml Concanavalin A, relative to non-treated group): 77%
- Proliferation (%) T cell (T lymphocyte; 10 nM, Concanavalin A): 46%
- Proliferation (%) T cell (T lymphocyte; 30 nM, Concanavalin A): 4%
- Proliferation (%) T cell (T lymphocyte; 100 nM, Concanavalin A): 2%
- suppression percentage, T lymphocyte induced by concanavalin A (T lymphocyte; 30–100 nM): 96–98%
- effect on proliferation and activity of T lymphocytes (T lymphocyte; non-cytotoxic concentrations): potential suppressive effect
- Proliferation (%) B cell (B lymphocytes; [6]): 47%
- Proliferation (%) B cell (B lymphocytes; 10 nM, third day): 49%
- Proliferation (%) B cell (B lymphocytes; 30 nM, third day): 50%
- Proliferation (%) B cell (B lymphocytes; 100 nM, third day): 52%
- selective cytotoxicity for B, CD4 T and CD8 T lymphocytes (B lymphocytes; B, CD4 T and CD8 T cell proportions, 3-100 nM, third day): no selective cytotoxicity
- Proliferation (%) CD4 T cell [3, 6]: 31%
- Proliferation (%) CD4 T cell ([3]; 10 nM, third day): 31%
- Proliferation (%) CD4 T cell ([3]; 30 nM, third day): 31%
- Proliferation (%) CD4 T cell ([3]; 100 nM, third day): 29%
- Wt. (mg) of Lymphatic node (T lymphocytes; [7]): 1.12 mg
- Wt. (mg) of Lymphatic node (T lymphocytes; [8]): 0.98 mg
- immune response of T lymphocytes in graft versus host reaction (T lymphocytes; peritoneal injection for five days): potentially suppress
- Body weight [4, 7]: 20 g
- Body weight [4, 8]: 21 g
- body weight change ([4]; at an effective concentration): not changed
- Wt. Ratio of spleen/body (%) ([5]; 10 mg/kg peritoneally everyday): 95%
- Wt. Ratio of spleen/body (%) ([5]; 30 mg/kg peritoneally everyday): 84%
- toxicity judged by weight ratio of the spleen to the body ([5]; at effective concentrations): no toxicity
- immunosuppressive activity on CD4 T lymphocytes (CD4 T lymphocytes): has an immunosuppressive activity
